# Experimental data from ChEMBL document CHEMBL3351479, “Novel acylureidoindolin-2-one derivatives as dual Aurora B/FLT3 inhibitors for the treatment of acute myeloid leukemia” (Eur J Med Chem, 2014).
# pIC50: −log10 of the molar value.
# Key:
# [1] = tested on: THP-1; assay: Cytotoxicity against human THP1 cells assessed as cell viability after 48 hrs by MTT assay; assay type: functional, cell-based; conditions: Homo sapiens, THP-1, 48 h
# [2] = Cytotoxicity against human HL60 cells assessed as cell viability after 48 hrs by MTT assay; assay type: functional, cell-based; conditions: HL-60, 48 h
# [3] = tested on: MOLM-13; assay: Cytotoxicity against human MOLM13 cells assessed as cell viability after 48 hrs by MTT assay; assay type: functional, cell-based; conditions: MOLM-13, 48 h
# [4] = tested on: MV4-11; assay: Cytotoxicity against human MV4-11 cells assessed as cell viability after 48 hrs by MTT assay; assay type: functional, cell-based; conditions: Homo sapiens, MV4-11, 48 h
# [5] = biological target: Aurora kinase B (Homo sapiens, UniProt Q96GD4); assay: Inhibition of Aurora B (unknown origin) using HLRRASLG substrate at 1 uM
# Chain of Aurora kinase B (Q96GD4 whole entry): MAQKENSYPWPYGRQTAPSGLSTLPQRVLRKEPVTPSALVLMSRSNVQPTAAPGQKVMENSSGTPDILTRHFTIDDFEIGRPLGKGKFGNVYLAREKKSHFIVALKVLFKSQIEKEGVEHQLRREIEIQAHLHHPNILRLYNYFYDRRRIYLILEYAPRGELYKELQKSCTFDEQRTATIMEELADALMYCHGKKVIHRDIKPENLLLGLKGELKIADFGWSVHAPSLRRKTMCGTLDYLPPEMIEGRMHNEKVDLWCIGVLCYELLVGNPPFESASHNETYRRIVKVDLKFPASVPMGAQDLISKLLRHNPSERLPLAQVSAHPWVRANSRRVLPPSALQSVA
# [6] = Cytotoxicity against human HL60 cells assessed as cell viability at 1 uM after 48 hrs by MTT assay; assay type: functional; conditions: HL-60, 48 h, read-out: Activity
# [7] = biological target: Receptor-type tyrosine-protein kinase FLT3 (Homo sapiens) (UniProt P36888); assay: Inhibition of FLT3 (unknown origin) using EAIYAAPFAKKK substrate at 1 uM
# [8] = tested on: MOLM-13; assay: Cytotoxicity against human MOLM13 cells assessed as cell viability at 1 uM after 48 hrs by MTT assay; assay type: functional; conditions: MOLM-13, 48 h, read-out: Activity
# [9] = tested on: MV4-11; assay: Cytotoxicity against human MV4-11 cells assessed as cell viability at 1 uM after 48 hrs by MTT assay; assay type: functional; conditions: MV4-11, 48 h, read-out: Activity
# [10] = tested on: THP-1; assay: Cytotoxicity against human THP1 cells assessed as cell viability at 1 uM after 48 hrs by MTT assay; assay type: functional; conditions: THP-1, 48 h, read-out: Activity
# [11] = biological target: T1, Receptor-type tyrosine-protein kinase FLT3 (Homo sapiens, UniProt P36888); assay: Inhibition of FLT3 (unknown origin) using EAIYAAPFAKKK substrate
# T1 sequence (P36888 whole entry): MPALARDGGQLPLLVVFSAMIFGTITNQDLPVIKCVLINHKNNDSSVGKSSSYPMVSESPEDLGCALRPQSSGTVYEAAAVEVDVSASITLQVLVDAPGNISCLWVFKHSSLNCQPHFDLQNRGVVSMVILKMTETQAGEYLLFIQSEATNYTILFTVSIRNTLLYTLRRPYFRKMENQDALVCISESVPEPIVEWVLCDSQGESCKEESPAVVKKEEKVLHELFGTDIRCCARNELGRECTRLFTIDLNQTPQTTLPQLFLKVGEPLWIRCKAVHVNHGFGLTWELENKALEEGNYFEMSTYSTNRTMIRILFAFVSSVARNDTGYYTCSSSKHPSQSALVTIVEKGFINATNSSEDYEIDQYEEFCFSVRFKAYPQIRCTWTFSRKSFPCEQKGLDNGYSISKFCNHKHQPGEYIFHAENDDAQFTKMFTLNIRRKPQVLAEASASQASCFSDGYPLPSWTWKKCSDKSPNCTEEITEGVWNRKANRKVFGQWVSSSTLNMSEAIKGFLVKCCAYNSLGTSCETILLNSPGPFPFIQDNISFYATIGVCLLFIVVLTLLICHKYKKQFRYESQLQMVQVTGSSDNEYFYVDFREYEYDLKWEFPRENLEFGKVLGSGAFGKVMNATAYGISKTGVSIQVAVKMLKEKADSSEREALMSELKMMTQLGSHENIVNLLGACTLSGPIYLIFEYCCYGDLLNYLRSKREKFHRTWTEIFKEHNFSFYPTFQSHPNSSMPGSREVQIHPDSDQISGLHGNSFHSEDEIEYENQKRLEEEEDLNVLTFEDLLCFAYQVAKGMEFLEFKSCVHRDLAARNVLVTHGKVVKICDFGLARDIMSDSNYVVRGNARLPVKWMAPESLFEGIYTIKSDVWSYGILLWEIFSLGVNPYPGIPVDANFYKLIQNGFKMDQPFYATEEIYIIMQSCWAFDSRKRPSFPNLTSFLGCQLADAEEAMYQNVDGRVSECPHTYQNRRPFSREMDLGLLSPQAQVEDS
Structure (SMILES),pIC50 [1],pIC50 [2],pIC50 [3],pIC50 [4],inhibition [5],viability at 1 µM [6],inhibition [7],viability at 1 µM [8],viability at 1 µM [9],viability at 1 µM [10],pIC50 [11]
O=C(NC(=O)c1ccc(Cl)c(Cl)c1)Nc1ccc2c(c1)NC(=O)/C2=C\c1ccc[nH]1,7.04,7.46,7.54,7.50,,,,,,,
COc1ccc(C(=O)NC(=O)Nc2ccc3c(c2)/C(=C/c2ccc[nH]2)C(=O)N3)cc1,6.43,6.52,6.65,6.59,39%,,,,,,
CN(C)c1ccc(C(=O)NC(=O)Nc2ccc3c(c2)NC(=O)/C3=C\c2ccc[nH]2)cc1,6.58,6.57,6.58,6.58,,,,,,,
CCN(CCO)CCCOc1ccc2c(Nc3cc(CC(=O)Nc4cccc(F)c4)[nH]n3)ncnc2c1 [DEFOSBARASERTIB],7.60,7.90,8.01,8.07,,,,,,,
COc1ccc(C(=O)NC(=O)Nc2ccc3c(c2)NC(=O)/C3=C/c2cccc(C(=O)O)c2)cc1,< 6.30,< 6.30,6.54,< 6.30,73%,59%,21%,53%,57%,71%,
COc1ccc(C(=O)NC(=O)Nc2ccc3c(c2)NC(=O)/C3=C/c2ccncc2)cc1,< 6.30,< 6.30,< 6.30,< 6.30,7%,95%,4%,65%,72%,96%,
COc1cc(OC)cc(C(=O)NC(=O)Nc2ccc3c(c2)NC(=O)/C3=C\c2ccc[nH]2)c1,6.52,6.60,6.94,6.82,,,,,,,< 6.00
O=C(NC(=O)c1ccccc1)Nc1ccc2c(c1)NC(=O)/C2=C\c1ccc[nH]1,6.53,6.60,6.62,6.62,,,,,,,< 6.00
COc1ccc(C(=O)NC(=O)Nc2ccc3c(c2)NC(=O)/C3=C\c2[nH]c(C)c(CCC(=O)O)c2C)c(F)c1,7.21,7.78,8.40,8.21,,,,,,,
COc1ccc(C(=O)NC(=O)Nc2ccc3c(c2)NC(=O)/C3=C/c2ccc(N(C)C)cc2)cc1,7.05,7.30,7.37,7.34,59%,,40%,,,,
COc1ccc(C(=O)NC(=O)Nc2ccc3c(c2)NC(=O)/C3=C\c2[nH]c(C)c(C(=O)N3CCN(C)CC3)c2C)c(F)c1,7.02,7.80,8.16,7.97,,,,,,,
Cc1ccc(C(=O)NC(=O)Nc2ccc3c(c2)NC(=O)/C3=C\c2ccc[nH]2)cc1,6.45,6.52,6.67,6.55,,,,,,,
COc1ccc(C(=O)NC(=O)Nc2ccc3c(c2)NC(=O)/C3=C\c2[nH]c(C)c(CC(=O)O)c2C)cc1,7.16,8.09,8.51,8.38,,,,,,,
COc1ccc(C(=O)NC(=O)Nc2cc3c(cc2F)/C(=C/c2[nH]c(C)c(CCC(=O)O)c2C)C(=O)N3)c(F)c1,7.25,8.05,8.64,8.19,,,,,,,
CCN(CC)CCNC(=O)c1c(C)[nH]c(/C=C2\C(=O)Nc3cc(NC(=O)NC(=O)c4ccc(OC)cc4F)ccc32)c1C,7.39,7.69,7.89,7.75,,,,,,,
O=C(NC(=O)c1ccccc1F)Nc1ccc2c(c1)NC(=O)/C2=C\c1ccc[nH]1,6.48,6.57,6.63,6.63,,,,,,,

Structure (SMILES),pIC50 [1],pIC50 [2],pIC50 [3],pIC50 [4],inhibition [5],viability at 1 µM [6],inhibition [7],viability at 1 µM [8],viability at 1 µM [9],viability at 1 µM [10],pIC50 [11]
COc1ccc(C(=O)NC(=O)Nc2ccc3c(c2)NC(=O)/C3=C/c2ccc(O)cc2)cc1,< 6.30,6.31,6.45,6.42,63%,,,,,54%,< 6.00
COc1ccc(C(=O)NC(=O)Nc2ccc3c(c2)NC(=O)/C3=C\c2[nH]c(C)c(C(=O)NCCN(C)C)c2C)c(F)c1,7.20,7.85,8.28,8.09,,,,,,,
COc1ccc(C(=O)NC(=O)Nc2ccc3c(c2)NC(=O)/C3=C\c2[nH]c(C)c(C(=O)N3CCOCC3)c2C)c(F)c1,6.99,7.62,7.97,7.77,,,,,,,
COc1ccc(C(=O)NC(=O)Nc2ccc3c(c2)NC(=O)/C3=C\c2[nH]c(C)cc2C)cc1,6.94,7.34,7.37,7.20,,,,,,,
O=C(NC(=O)c1ccc(Cl)c(C(F)(F)F)c1)Nc1ccc2c(c1)NC(=O)/C2=C\c1ccc[nH]1,7.16,7.63,7.95,7.85,,,,,,,
COc1ccc(C(=O)NC(=O)Nc2cc3c(cc2F)/C(=C/c2[nH]c(C)c(C(=O)O)c2C)C(=O)N3)c(F)c1,7.12,7.54,7.75,7.44,,,,,,,
COc1ccc(C(=O)NC(=O)Nc2cccc3c2/C(=C/c2ccc[nH]2)C(=O)N3)cc1,6.45,6.48,6.52,6.45,11%,,,,,,
COc1ccc(C(=O)NC(=O)Nc2cccc3c2NC(=O)/C3=C\c2ccc[nH]2)cc1,< 6.30,6.31,< 6.30,< 6.30,7%,,7%,72%,78%,53%,
CCN(CC)CCNC(=O)c1c(C)[nH]c(/C=C2\C(=O)Nc3ccc(F)cc32)c1C [SUNITINIB],7.34,7.43,7.75,7.61,,,,,,,
COc1ccc(C(=O)NC(=O)Nc2cc3c(cc2F)/C(=C/c2[nH]c(C)c(CCC(=O)O)c2C)C(=O)N3)cc1,7.19,7.54,7.52,7.58,,,,,,,< 6.00
CCOC(=O)CCc1c(C)[nH]c(/C=C2\C(=O)Nc3cc(NC(=O)NC(=O)c4ccc(OC)cc4F)ccc32)c1C,7.27,7.52,7.96,7.82,,,,,,,< 6.00
COc1ccc(C(=O)NC(=O)Nc2ccc3c(c2)NC(=O)/C3=C\c2[nH]c(C)c(CCC(=O)N3CCN(C)CC3)c2C)c(F)c1,7.19,7.80,8.04,7.96,,,,,,,
COc1ccc(/C=C2/C(=O)Nc3cc(NC(=O)NC(=O)c4ccc(OC)cc4)ccc32)cc1,6.42,6.47,6.62,6.64,56%,,43%,,,,
COc1ccc(C(=O)NC(=O)Nc2ccc3c(c2)NC(=O)/C3=C\c2[nH]c(C)c(CCC(=O)N3CCOCC3)c2C)c(F)c1,7.15,7.51,7.79,7.75,,,,,,,
O=C(NC(=O)c1ccc(Cl)cc1)Nc1ccc2c(c1)NC(=O)/C2=C\c1ccc[nH]1,7.09,7.67,7.72,7.71,,,,,,,
O=C(NC(=O)c1ccc(C(F)(F)F)cc1)Nc1ccc2c(c1)NC(=O)/C2=C\c1ccc[nH]1,6.49,6.53,6.71,6.72,,,,,,,
